The text below walks through data of patent US20220289657A1, “COMPOSITION FOR PREVENTING OR TREATING BACTERIAL INFECTIOUS DISEASE COMPRISING 4-GINGEROL DERIVATIVE COMPOUND AS ACTIVE INGREDIENT” (KOREA UNIVERSITY RESEARCH AND BUSINESS FOUNDATION, SEJONG …, priority 2019, published 2022).

Where two headings read alike, the source gives them in different places. Marks after values point to notes of the source that are not given here.

Assay [1] concerns Pseudomonas aeruginosa. Briefly: Dynamic biofilm formation assay (drip-flow reactor, CLSM). In kind it is cell-based. As to conditions: 48 hours, 10 μM, smaller volume and thickness than control. As to the method:
Glass slides were placed in a drip-flow reactor, and an AB medium containing 5% P. aeruginosa (OD 595 nm=1.0) was added along with a positive control or compound (0 to 10 μM) and the reactor was continuously operated using peristaltic pumps (Masterflex C/L tubing pumps, Cole-Parmer, Ill., USA) at 0.3 ml/min. After the above-described process was carried out at 37° C. for 48 hours, unattached biofilm cells were removed with PBS. The remaining biofilm cells were stained with DAPI (Sigma-Aldrich) for 10 minutes, and observed by confocal laser scanning microscopy (CLSM; Carl Zeiss LSM700, Jena, Germany). The CLSM image of the biofilm cells was obtained with a 20× objective lens (W NAchroplanX20/0.5W (DIC) M27) under blue fluorescence light (excitation wavelength: 350 nm, emission wavelength: 470 nm) using a Z-stack mode of the Zen 2011 program. The volume and thickness of the biofilm were measured using Comstat2 of the ImageJ program based on a CLSM image.

The test system of another assay is rhlA. Put plainly: RT-qPCR analysis of rhlA expression in biofilm cells. In kind it is cell-based, Pseudomonas aeruginosa. As to conditions: 10 μM, FIG. 9B. As to the method: P. aeruginosa (OD 595 nm=1.0) overnight cultured with a positive control or compound (0-10 μM) was diluted (1:20) in an AB medium in a borosilicate bottle. Afterward, after culture for 24 hours at 37° C., biofilm cells were collected for RNA extraction. Total RNA was extracted using a TRI reagent (Molecular Research Center, OH, USA) according to the manufacturer's instruction. To quantify and compare QS-related gene expression levels, RT-qPCR was performed. For RT-qPCR, a SYBR Premix Ex Taq™ (Takara, Shiga, Japan), a CFX-96 real-time system (Bio-Rad, Hercules, Calif. USA), and a QS-related gene primer set were used. The thermal profile of the RT-qPCR is as follows: 40 cycles of initial denaturation for 10 seconds at 95° C., denaturation for 10 seconds at 95° C., annealing for 10 seconds at 60° C., and extension for 34 seconds at 63° C. A fluorescent signal intensity was collected at the end of the elongation step.

For assay [2], the system named is Pseudomonas aeruginosa. Put plainly: Bacterial growth under static condition (OD 595 nm of suspended culture). The following applies: for activity at 10 µM / activity at 100 µM: Pseudomonas aeruginosa, 24 h; for activity at 10 µM: read-out: Relative biological activity (%) Bacterial growth 10; for activity at 100 µM: read-out: Relative biological activity (%) Bacterial growth 100. Type of assay: cell-based. The procedure: (§1) Pseudomonas aeruginosa (P. aeruginosa) (OD 595 nm=1.0) was cultured overnight, and diluted in an AB medium (1:20; 300 mM NaCl, 50 mM MgSO4, 0.2% vitamin-free casamino acids, 10 mM potassium phosphate, 1 mM L-arginine, and 1% glucose, pH 7.5) together with a positive control or compound (0100 μM) in a borosilicate bottle. The resulting mixture was incubated without shaking at 37° C. for 24 hours, and to measure growth inhibition activity. OD 595 nm of the suspended culture was measured using a multimode plate reader. Biofilm cells attached to the bottle were washed twice with phosphate-buffered saline (PBS; 137 mM NaCl, 2.7 mM KCl, 10 mM Na2HPO4, and 2 mM KH2PO4, pH 7.2). Afterward, the remaining biofilm cells were stained with 0.1% crystal violet for 10 minutes, and to remove the unbound crystal violet, washed with deionized water. The crystal violet […] to the biofilm cells was eluted with 100% ethanol, and the OD of the eluted ethanol sample was measured at 545 nm using a multimode plate reader.

Assay [3] concerns the target T1, LasR (Pseudomonas aeruginosa, UniProt P25084).
T1 construct: expressed in transfected cells; host or cells: E. coli DH5a co-transformed with pJN105L and pSC11 (lasI::lacZ)
As to conditions: previous studies; cited from earlier work.

Another assay addresses T2, RhlR (Pseudomonas aeruginosa, UniProt P54292).
T2 construct: expressed in transfected cells; host or cells: E. coli sdiA variant co-transformed with pJN105R and pSC11 (RhlA::lacZ)
Briefly: cell-based. The following applies: for IC50: dose-response, FIG. 6A, different concentrations (0 to 100 μM).

Assay [4] relates to Pseudomonas aeruginosa. Put plainly: Static biofilm formation assay (crystal violet). Type of assay: cell-based. The procedure: as §1
In a further assay the test system is P. aeruginosa. Put plainly: Rhamnolipid production assay. Type of assay: cell-based, Pseudomonas aeruginosa. As to the method:
P. aeruginosa (OD 595 nm=1.0) cultured overnight was inoculated in an AB medium (1:100) with a positive control or compound (0100 μM), and incubated using a shaking culture for 24 hours at 37° C. The cell culture was centrifuged for 5 minutes at 4° C. and 12,000 g. Rhamnolipids were extracted twice by mixing 200 μL of a supernatant and 400 μL of 100% diethyl ether (JUNSEI, Tokyo, Japan). The supernatant was transferred to a new tube and evaporated. A dried sample was eluted with 20 μL of deionized water, and reacted with 180 μL of an Orcinal solution (0.19% Orcinal (Sigma-Aldrich) in 53% H2SO4). The reaction mixture was heated for 30 minutes at 80° C., and cooled for 15 minutes at room temperature. The amount of rhamnolipids was measured at OD 421 nm, and normalized in the cell culture solution at OD 595 nm using a multimode plate reader.

The target in assay [5] is T1, LasR. Briefly: QS reporter strain assay, LasR (lasI::lacZ). In kind it is cell-based. As to conditions: 0.1 and 10 μM; FIG. 6C. As to the method:
For RhlR reporter strain analysis, the present invention used pJN105R (RhlR expression plasmid), anspSC11 (RhlA::lacZ fusion plasmid) and an sdiA variant co-transformed with the two plasmids. 1% of an overnight-cultured reporter strain (OD 595 nm=1.0) supplemented with 10 μg/mL gentamicin and 50 μg/mL ampicillin was cultured in a Luria-Bertani (LB) medium (Difco, Detroit, Mich., USA) with a positive control or a compound (0-1000 μM) and BHL (0-10 μM) (Sigma-Aldrich) at 37° C. for 2 hours. 0.4% arabinose (Sigma-Aldrich) was reacted with the resulting product at 37° C. for 1.5 hours. β-galactosidase activity was evaluated using a Tropix plus kit (Applied Biosystems, CA, USA), and OD 595 nm and luminescence were measured using a VICTOR x5 multimode plate reader (PerkinElmer, Waltham, Mass., USA). Relative RhlR activity was quantified by measuring luminescence at OD 595 nm. In addition, for LasR reporter strain analysis, the present invention used pJN105L (LasR expression plasmid) and pSC11 (lasI::lacZ fusion plasmid), E. coli DH5a co-transformed with the two plasmids, and OdDHL (Sigma-Aldrich).

Assay [6] relates to Pseudomonas aeruginosa-injected T. molitor larvae. Put plainly: Mortality of Pseudomonas aeruginosa-injected T. molitor larvae. The following applies: 10 μM; 20 days of incubation; FIG. 10. In kind it is in vivo, Tenebrio molitor. As to the method: The mortality of Tenebrio molitor (T. molitor) larvae was measured with a positive control or compound (0-10 μM) by the method used as in previous research. Overnight-cultured P. aeruginosa (OD 595 nm=1.0) was centrifuged for 10 minutes at 10,000 rpm. The supernatant was filtered through a 0.22-μm filter, and injected into the larvae using a syringe needle. The larvae were stored in a petri dish for 20 days at 25° C. The mortality of the larvae was measured every 5 days.

The subject of assay [7] is rhlR variant of P. aeruginosa. Put plainly: Pyocyanin production assay, rhlR variant. Type of assay: cell-based, Pseudomonas aeruginosa. The following applies: 10 μM, FIG. 9C. The procedure:
P. aeruginosa cultured overnight with a positive control or compound (0-10 μM) was inoculated in an AB medium, incubated for 24 hours at 37° C., and centrifuged for 10 minutes at 10,000 rpm. To extract pyocyanin, the supernatant was reacted with 50% trifluoroacetic acid (TFA, Sigma-Aldrich) for 1 hour at 37° C. The reacted supernatant was centrifuged for 10 minutes at 10,000 rpm, and filtered through a 0.22-μm filter. […] Specific HPLC conditions are as follows: mobile phase deionized water; TFA (99:1); injection volume:10 μL; temperature: 25° C.; and flow rate: 0.5 mL/min. The retention time of pyocyanin (Sigma-Aldrich) is 20 minutes. To measure a pyocyanin amount, when the retention time was 20 minutes, the height of an analysis peak was detected.

Assay [8] concerns Pseudomonas aeruginosa. Put plainly: EPS analysis of drip-flow biofilm cells (carbohydrates, proteins). In kind it is cell-based. The following applies: 10 μM. As to the method:
EPS analysis was carried out with the biofilm cells attached to the slides after the operation of the drip-flow reactor. The biofilm cells that were centrifuged were re-suspended with 0.01M KCl, and for the analysis of carbohydrates and proteins, the cells were disrupted with a sonicator (VCX 750, SONICS, Newtown, Conn., USA) for 5 seconds at a level of 3.5 Hz, followed by stopping for 5 seconds, which was repeated 4 times. A supernatant of the cell-disrupted suspension was filtered through a 0.22 μm membrane filter (Millex filter, Carl Roth, Karlsruhe, Germany). For protein analysis, a mixture containing 40 μL of the filtrate and 200 μL of a Lowry reagent (L3540, Sigma-Aldrich) was incubated at room temperature for 10 minutes. Afterward, 20 μL of a Folin-Ciocalteu reagent (Sigma-Aldrich) was added and incubated at room temperature for 30 minutes, followed by measuring OD at 750 nm using a multimode plate reader. A protein amount was quantified at OD 750 nm or OD 595 nm. For carbohydrate analysis, a mixture containing 50 μL of the filtrate and 150 μL of 99.9% sulfuric acid was incubated at room temperature for 30 minutes. Afterward, 5% phenol was added, followed by incubation at 90° C. for 5 minutes. OD was measured at 490 nm using a multimode plate reader. The amount of carbohydrates was quantified at OD 490 nm or OD 595 nm.

Where [9] appears, read: Table 2, footnotes not given, 100 μM per Table 3, lower = stronger antagonism.
[10] abbreviates: Table 4, concentration not given.

T2 sequence (P54292 whole entry): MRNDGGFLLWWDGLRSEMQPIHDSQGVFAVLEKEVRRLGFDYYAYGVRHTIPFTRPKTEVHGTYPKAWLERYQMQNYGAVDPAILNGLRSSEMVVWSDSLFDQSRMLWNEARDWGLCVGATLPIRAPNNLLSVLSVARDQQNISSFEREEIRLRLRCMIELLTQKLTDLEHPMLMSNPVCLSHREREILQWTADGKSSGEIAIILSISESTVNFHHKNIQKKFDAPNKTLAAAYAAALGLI
T1 sequence (P25084 whole entry): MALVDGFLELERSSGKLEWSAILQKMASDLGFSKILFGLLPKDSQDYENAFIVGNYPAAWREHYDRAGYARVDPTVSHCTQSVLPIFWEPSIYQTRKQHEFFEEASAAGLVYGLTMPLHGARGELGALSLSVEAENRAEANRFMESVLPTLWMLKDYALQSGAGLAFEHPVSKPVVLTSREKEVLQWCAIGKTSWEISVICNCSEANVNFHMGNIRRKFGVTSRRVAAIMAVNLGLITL

With `CCCCC[C@H](O)CC(=O)CCc1ccc(O)c(OC)c1` [Compound 1c, (S)-6-gingerol, reference compound], the “biofilm appearance under flow condition vs control” value in the assay on Pseudomonas aeruginosa [1] was “thinner and more dispersed biofilm”. The “downregulation of rhlA expression of biofilm cells” value in the assay on rhlA came to 38%. Moreover, in the assay on Pseudomonas aeruginosa [2], the activity at 10 µM is 96% and the activity at 100 µM turned out to be 101%. Moreover, the “LasR antagonistic activity (reported previously)” value on LasR [3] was “LasR antagonistic activity”.

For the compound `CCCC(=O)NC1CCCC1` [Compound 1d, N-cyclopentylbutyramide, reference compound], the “biofilm appearance under flow condition vs control” value in the assay on Pseudomonas aeruginosa [1] was “thinner and more dispersed biofilm”. Also, the activity at 10 µM in the assay on Pseudomonas aeruginosa [2] (Table 3, 10 (μM)) stood at 95%; in the assay on Pseudomonas aeruginosa [4] (Pseudomonas aeruginosa, 24 h, Table 3, static, 10 (μM), read-out: Relative biological activity (%) Biofilm formation 10), 84%; in the assay with P. aeruginosa (Pseudomonas aeruginosa, 24 h, read-out: Relative biological activity (%) Rhamnolipid production 10), 58%. The activity at 100 µM in the assay on Pseudomonas aeruginosa [2] (Table 3, 100 (μM)) came to 98%; at RhlR (read-out: Relative RhlR activity Agonism, Table 2, footnotes not given, matches the 100 column of Table 3) it was 4%; in the assay on Pseudomonas aeruginosa [4] (Pseudomonas aeruginosa, 24 h, Table 3, static, 100 (μM), read-out: Relative biological activity (%) Biofilm formation 100) it was 69%; in the assay with P. aeruginosa (Pseudomonas aeruginosa, 24 h, read-out: Relative biological activity (%) Rhamnolipid production 100), 45%. The “Relative RhlR activity Antagonism” value on RhlR (setting [9]) is given as 54** %. Further, the “Relative RhIR Activity (%) Agonism 100” value at RhlR (Table 3, 100 (μM)) was 4** %. In addition, the “Relative RhIR Activity (%) Agonism 1000” value at RhlR (Table 3, 1000 (μM)) is 37%. At RhlR (setting [10]), the “Relative RhIR activity (%) Agonism” value is recorded as 4** %. For the same compound, half-maximal inhibition against RhlR (IC50) was put at 86 µM. Besides, the remaining activity at 10 µM at RhlR (read-out: Relative RhIR Activity (%) Antagonism 10, Table 3, 10 (μM)) was found to be 74%. Besides, the remaining activity at 100 µM at RhlR (read-out: Relative RhIR Activity (%) Antagonism 100, Table 3, 100 (μM)) came to 54%; on RhlR (read-out: Relative RhlR activity Antagonism, Table 2, footnotes not given, 100 μM per Table 3, lower = stronger antagonism), 54%. Also, the “Relative biological activity (%) Biofilm formation” value with Pseudomonas aeruginosa [4] (setting [10]) is reported as 81* %. The “Relative biological activity (%) Rhamnolipid production” value in the assay on P. aeruginosa (setting [10]) was 68* %.

For the compound `CCCC(O)CC(=O)CCc1ccc(O)c(OC)c1` (stereo not shown) [Compound 12a, 5-Hydroxy-1-(4-hydroxy-3-methoxyphenyl)octan-3-one], the LasR antagonistic activity result on LasR [5] is recorded as “no LasR antagonistic activity”. Moreover, the “Relative RhlR activity Antagonism” value at RhlR (setting [9]) is on record as 69** %. The “Relative RhlR activity Agonism” value on RhlR (Table 2, footnotes not given, matches the 100 column of Table 3) is given as 4** %. For the same compound, the half-maximal inhibitory concentration (IC50) (usually the concentration at which inhibition is half-maximal) at RhlR amounted to 218 µM.

Take `CCCC(=O)C#Cc1ccc(F)c(F)c1` [Compound 30, 1-(3,4-Difluorophenyl)hex-1-yn-3-one]: the “larvae survived to the end of the incubation” value in assay [6] is listed as “approximately 80%”. Moreover, in assay [7], the “virulence factor (pyocyanin) production vs control of the rhlR variant” value is recorded as “no difference”. Moreover, in the assay with Pseudomonas aeruginosa [2] (100 PM [sic] (100 μM)), the “effect on cell growth (in words)” value is reported as “no effect”. In addition, in the assay on Pseudomonas aeruginosa [2], the activity at 10 µM worked out at 103% and the activity at 100 µM stood at 99%. Moreover, the “reduction of the amount of carbohydrates in EPS” value in the assay on Pseudomonas aeruginosa [8] (FIG. 8B) worked out at 39%. In addition, the “reduction of the amount of proteins in EPS” value in the assay on Pseudomonas aeruginosa [8] (FIG. 8C) is listed as 72%.
